Measurements published in the NIST ThermoML archive (doi:10.1021/acs.jced.5b00343).

Columns and labels:
[1] = refractive index (Na D-line) (dimensionless); settings: 101 kPa, Liquid, Standard Abbe refractometry
[2] = 101 kPa, Liquid; for speed of sound: Frequency=1.5 MHz, Sing-around technique in a fixed-path interferometer; for mass density: Vibrating tube method

CCCCO [butan-1-ol]
Settings | mass density, [2] [kg/m3] | refractive index, [1] | speed of sound, [2] [m/s]
303.15 K | 802.01 | 1.3948 | 1222.7
308.15 K | 798.14 | 1.3927 | 1206.3
313.15 K | 794.22 | 1.3907 | 1189.4
318.15 K | 790.28 | 1.3875 | 1172.8
323.15 K | 786.29 | 1.3848 | 1156.7
